Measured values: publication PMC10269165 (Antimicrobial Agents and Chemotherapy, 2023)

Assay: WST-1 cytotoxicity assay in HCT-8 cells
Assay type: cell-based, human
Settings: human, HCT-8 cells (human ileocecal colorectal adenocarcinoma), read-out: Mean IC50 ± SEM, Cytotoxicity
Protocol: Compounds were tested for cytotoxicity in human ileocecal colorectal adenocarcinoma cells (HCT-8) (ATCC CCL-244; RRID:CVCL_2478) by using the cell proliferation reagent WST-1 (Roche) according to the manufacturer’s protocol. The WST-1 assay is a quantitative colorimetric assay for measurement of metabolically active cells. This assay is based on the reduction of the tetrazolium salt (WST-1) by viable cells. About 5 × 10^4 HCT-8 cells were seeded per well in 96-well plates and grown overnight in 200 μL of RPMI 1640 medium (without phenol red; Gibco) supplemented with 2.5 g/L of glucose, 1 mM sodium pyruvate, 1.5 g/L of sodium bicarbonate, 10% heat-inactivated FBS (Gibco), and 1× antibiotic-antimycotic (Gibco) at 37°C with 5% CO2 in a humidified incubator. Upon reaching 80 to 90% confluence, cells were treated with various concentrations of the test compounds for 24 h. Control wells received equivalent volumes of DMSO used in the reconstituted compounds. After 24 h of culture, 10 μL of the WST-1 reagent was added to each well, and the plates were incubated in the dark for 1 h at 37°C with 5% CO2. The plates were well agitated, and 150 μL of the medium from each well was transferred to a new clear flat-bottomed black 96-well plate (Corning). The absorbance was read at a test wavelength of 440 nm and a reference wavelength of 690 nm using a multimode microplate reader (Spectra Max iD3; Molecular Devices, USA). All of the reactions were prepared in triplicate. The dose-response curves were generated by nonlinear regression analysis with GraphPad PRISM software using control-normalized data to determine the half-maximal cytotoxicity (IC50) concentrations.

SMILES	IC50 at 24 h
CO[C@@]12[C@H](COC(N)=O)C3=C(C(=O)C(C)=C(N)C3=O)N1C[C@H]1[C@@H]2N1C (some centres unmarked) [NSC56410]	188 ± 4.19 µM
O=c1c(O)cccc2cc(O)c(O)c(O)c12 [NSC35676, purpurogallin]	566 ± 55.9 µM
